The text below walks through data of US20090111821A1, “AMINO 1,2,4-TRIAZOLE DERIVATIVES AS MODULATORS OF MGLUR5” (AstraZeneca AB, priority 2007, published 2009).

Data set [1] is described as follows: Determination of brain to plasma ratio in rat. It counts as in vivo. To be noted: brain and plasma, female Sprague Dawley rats, read-out: Brain/Plasma Ratio of compound in Rat. The method, then: Brain to plasma ratios are estimated in female Sprague Dawley rats. The compound is dissolved in water or another appropriate vehicle. For determination of brain to plasma ratio the compound is administrated as a subcutaneous, or an intravenous bolus injection, or an intravenous infusion, or an oral administration. At a predetermined time point after the administration a blood sample is taken with cardiac puncture. The rat is terminated by cutting the heart open, and the brain is immediately retained. The blood samples are collected in heparinized tubes and centrifuged within 30 minutes, in order to separate the plasma from the blood cells. The plasma is transferred to 96-well plates and stored at −20° C. until analysis. The brains are divided in half, and each half is placed in a pre-tarred tube and stored at −20° C. until analysis. Prior to the analysis, the brain samples are thawed and 3 mL/g brain tissue of distilled water is added to the tubes. The brain samples are sonicated in an ice bath until the samples are homogenized. Both brain and plasma samples are precipitated with acetonitrile. After centrifugation, the supernatant is diluted with 0.2% formic acid. Analysis is performed on a short reversed-phase HPLC column with rapid gradient elution and MSMS detection using a triple quadrupole instrument with electrospray ionisation and Selected Reaction Monitoring (SRM) acquisition. Liquid-liquid extraction may be used as an alternative sample clean-up. The samples are extracted, by shaking, to an organic solvent after addition of a suitable buffer. An aliquot of the organic layer is transferred to a new vial and evaporated to dryness under a stream of nitrogen. After reconstitution of the residuals the samples are ready for injection onto the HPLC column.

In data set [2] the target is T1, human mGluR5d (Homo sapiens, UniProt P41594).
T1 construct: expressed in transfected cells; The cells are kept under hygromycin B and Zeocin selection; The separate IP3 assay names GHEK cells stably expressing human mGluR5d
T1 sequence (P41594 21-942 isoform P41594-3 limits assumed): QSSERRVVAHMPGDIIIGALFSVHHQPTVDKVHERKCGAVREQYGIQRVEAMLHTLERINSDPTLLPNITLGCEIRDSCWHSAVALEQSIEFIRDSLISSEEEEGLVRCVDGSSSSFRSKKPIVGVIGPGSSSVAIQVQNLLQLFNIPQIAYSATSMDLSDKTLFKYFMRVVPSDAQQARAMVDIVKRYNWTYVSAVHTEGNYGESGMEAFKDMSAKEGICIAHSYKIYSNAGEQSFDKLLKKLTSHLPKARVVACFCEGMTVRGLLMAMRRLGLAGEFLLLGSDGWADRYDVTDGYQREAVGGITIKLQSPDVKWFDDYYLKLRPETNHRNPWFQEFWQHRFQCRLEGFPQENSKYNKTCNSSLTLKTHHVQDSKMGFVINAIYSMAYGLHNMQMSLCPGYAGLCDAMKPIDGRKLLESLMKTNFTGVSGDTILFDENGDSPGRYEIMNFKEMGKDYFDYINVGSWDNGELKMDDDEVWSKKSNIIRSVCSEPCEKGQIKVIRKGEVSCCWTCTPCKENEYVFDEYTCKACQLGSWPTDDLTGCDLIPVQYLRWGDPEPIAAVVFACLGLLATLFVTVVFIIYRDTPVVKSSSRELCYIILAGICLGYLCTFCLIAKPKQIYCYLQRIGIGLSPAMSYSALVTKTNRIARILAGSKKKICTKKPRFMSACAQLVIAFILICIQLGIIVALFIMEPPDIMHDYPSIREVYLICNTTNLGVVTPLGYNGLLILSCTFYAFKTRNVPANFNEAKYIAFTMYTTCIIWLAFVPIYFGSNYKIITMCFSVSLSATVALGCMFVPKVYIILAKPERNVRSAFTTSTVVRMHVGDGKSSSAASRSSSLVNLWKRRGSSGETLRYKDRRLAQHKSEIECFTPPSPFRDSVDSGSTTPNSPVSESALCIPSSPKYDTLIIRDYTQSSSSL
The data set can be described thus: FLIPR assay, mobilization of intracellular calcium in cells expressing human mGluR5d. The class given is cell-based. To be noted: antagonism of agonist response, read-out: FLIPR hmGluR5d. The source says:
Functional Assessment of mGluR5 Antagonism in Cell Lines Expressing mGluR5D
The properties of the compounds of the invention can be analyzed using standard assays for pharmacological activity. Examples of glutamate receptor assays are well known in the art as described in for example Aramori et al., Neuron 8:757 (1992), Tanabe et al. Neuron 8:169 (1992), Miller et al., J. Neuroscience 15: 6103 (1995), Balazs, et al., J. Neurochemistry 69:151 (1997). The methodology described in these publications is incorporated herein by reference. Conveniently, the compounds of the invention can be studied by means of an assay (FLIPR) that measures the mobilization of intracellular calcium, [Ca^2+]i in cells expressing mGluR5 or another assay (IP3) that measures inositol phosphate turnover.
Cells expressing human mGluR5d as described in WO97/05252 cultured in a mixture of high glucose DMEM with Glutamax (31966-021)(500 mL), 10% dialyzed fetal bovine serum (Hyclone #SH30079.03) (56 mL), 200 μg/mL Hygromycin B (Invitrogen 45-0430, 50 mg/mL) (2.2 mL), 200 μg/mL Zeocin (Invitrogen #R250-01; 100 mg/mL) (1.1 mL) are seeded at a density of 100,000 cells per well on collagen coated clear bottom 96-well plates with black sides and cells were allowed to adhere over night before experiments. All assays are done in a buffer containing 146 mM NaCl, 5 mM KCl, 1 mM MgCl2, 1 mM CaCl2, 20 mM HEPES, 1 mg/mL glucose and 1 mg/mL BSA Fraction IV (pH 7.4). Cell cultures in the 96-well plates are loaded for 60 minutes in the above mentioned buffer containing 6 μM of the acetoxymethyl ester form of the fluorescent calcium indicator fluo-3 (Molecular Probes, Eugene, Oreg.) in 0.025% pluronic acid (a proprietary, non-ionic surfactant polyol—CAS Number 9003-11-6). Following the loading period the fluo-3 buffer is removed and replaced with fresh assay buffer. FLIPR experiments are done using a laser setting of 0.700 W and a 0.4 second CCD camera shutter speed with excitation and emission wavelengths of 488 nm and 562 nm, respectively. Each experiment is initiated with 160 μl of buffer present in each well of the cell plate. A 40 μl addition from the antagonist plate was followed by a 50 μL addition from the agonist plate. A 30 minutes, in dark at 25° C., interval separates the antagonist and agonist additions. The fluorescence signal is sampled 50 times at 1-second intervals followed by 3 samples at 5-second intervals immediately after each of the two additions. Responses are measured as the difference between the peak heights of the response to agonist, less the background fluorescence within the sample period. IC50 determinations are made using a […] least squares fitting program.
(In general: A change in cytosolic calcium serves as a functional read-out for many receptors and channels.)

Structures are written as SMILES. pIC50: −log10 of the molar value.

Consider `CCN(Cc1noc(-c2cccc(C)c2)n1)c1nnc(-c2ccn(C)c(=O)c2)n1C` [Example 8.6, 4-[5-(Ethyl{[5-(3-methylphenyl)-1,2,4-oxadiazol-3-yl]methyl}amino)-4-methyl-4H-1,2,4-triazol-3-yl]-1-methylpyridin-2(1H)-one], for which the Kp in data set [1] is less than 0.01. Further, the pIC50 in data set [2] was 7.12.
For `Cn1c(-c2cn[nH]c(=O)c2)nnc1N(Cc1cc(-c2cccc(Cl)c2)on1)C1CC1` [Example 4.1, 5-{5-[{[5-(3-Chlorophenyl)isoxazol-3-yl]methyl}(cyclopropyl)amino]-4-methyl-4H-1,2,4-triazol-3-yl}pyridazin-3(2H)-one] the same measures were less than 0.01 and 7.39.
For `CC(c1cc(-c2cccc(Cl)c2)on1)N(c1nnc(-c2cn[nH]c(=O)c2)n1C)C1CC1` (single isomer, unassigned; (-)) [(−) 5.2] the same measures were less than 0.01 and 6.95.
Consider `CN(Cc1cc(-c2cccc(Cl)c2)on1)c1nnc(-c2cc(=O)[nH]cn2)n1C1CC1` [Example 4.5, 6-{5-[{[5-(3-chlorophenyl)isoxazol-3-yl]methyl}(methyl)amino]-4-cyclopropyl-4H-1,2,4-triazol-3-yl}pyrimidin-4(3H)-one], for which the Kp in data set [1] is less than 0.01. The pIC50 in data set [2] is 7.11.
For `Cc1cccc(-c2cc([C@H](C)N(C)c3nnc(-c4cnn(C)c(=O)c4)n3C)no2)c1` [Example 14, 2-Methyl-5-[4-methyl-5-(methyl{(1S)-1-[5-(3-methylphenyl)isoxazol-3-yl]ethyl}amino)-4H-1,2,4-triazol-3-yl]pyridazin-3(2H)-one] the same measures were 0.07 and 7.92.
Regarding `CCN(Cc1cc(-c2cccc(C)c2)on1)c1nnc(-c2ccn(C)c(=O)c2)n1C` [Example 4.8, 4-[5-(Ethyl{[5-(3-methylphenyl)isoxazol-3-yl]methyl}amino)-4-methyl-4H-1,2,4-triazol-3-yl]-1-methylpyridin-2(1H)-one], in data set [1], the Kp worked out at 0.22. Further, in data set [2], the pIC50 was 6.95.
For the molecule `Cc1cccc(-c2cc([C@H](C)N(C)c3nnc(-c4ccn(C)c(=O)c4)n3C)no2)c1` [Example 8.3, 1-Methyl-4-[4-methyl-5-(methyl-{(1S)-1-[5-(3-methylphenyl)-isoxazol-3-yl]ethyl}amino)-4H-1,2,4-triazol-3-yl]pyridin-2(1H)-one], the Kp in data set [1] was less than 0.01. Moreover, the pIC50 in data set [2] was 6.93.
For `CCn1c(-c2cc(=O)[nH]cn2)nnc1N(C)Cc1cc(-c2cccc(Cl)c2)on1` [Example 4.4, 6-{5-[{[5-(3-chlorophenyl)-isoxazol-3-yl]methyl}(methyl)amino]-4-ethyl-4H-1,2,4-triazol-3-yl}pyrimidin-4(3H)-one] the same measures were less than 0.01 and 7.89.
On to `CCN(Cc1noc(-c2cccc(Cl)c2)n1)c1nnc(-c2cn[nH]c(=O)c2)n1C` [Example 8.4, 5-{5-[{[5-(3-Chlorophenyl)-1,2,4-oxadiazol-3-yl]methyl}(ethyl)amino]-4-methyl-4H-1,2,4-triazol-3-yl}pyridazin-3(2H)-one], for which the Kp in data set [1] is less than 0.01. In addition, in data set [2], the pIC50 was 7.37.
For `Cc1cccc(-c2cc([C@H](C)N(C)c3nnc(-c4cn[nH]c(=O)c4)n3C)no2)c1` [Example 4.11, (−)-5-[4-Methyl-5-(methyl-{(1S)-1-[5-(3-methylphenyl)isoxazol-3-yl]ethyl}amino)-4H-1,2,4-triazol-3-yl]pyridazin-3(2H)-one] the same measures were less than 0.01 and 7.37.
For `Cc1cccc(-c2cc([C@H](C)N(C)c3nnc(-c4cc[nH]c(=O)c4)n3C)no2)c1` [Example 4.12, (−)-4-[4-Methyl-5-(methyl-{(1S)-1-[5-(3-methylphenyl)-isoxazol-3-yl]ethyl}amino)-4H-1,2,4-triazol-3-yl]pyridin-2(1H)-one], in data set [1], the Kp was less than 0.01. The pIC50 in data set [2] was 7.15.
Consider `CCN(Cc1cc(-c2cccc(Cl)c2)on1)c1nnc(-c2cn[nH]c(=O)c2)n1C` [Example 4.3, 5-{5-[{[5-(3-Chlorophenyl)-isoxazol-3-yl]methyl}(ethyl)-amino]-4-methyl-4H-1,2,4-triazol-3-yl}pyridazin-3(2H)-one], for which the Kp in data set [1] worked out at 0.015. In addition, in data set [2], the pIC50 was 7.68.
In the same order, the values of `CC(c1cc(-c2cccc(Cl)c2)on1)N(C)c1nnc(-c2ccn(C)c(=O)c2)n1C` (single isomer, unassigned; (-)) [(−) 5.1] are less than 0.01 and 7.52.
On to `CCN(Cc1cc(-c2cccc(C)c2)on1)c1nnc(-c2cc[nH]c(=O)c2)n1C` [Example 4.9, 4-[5-(Ethyl{[5-(3-methylphenyl)isoxazol-3-yl]methyl}amino)-4-methyl-4H-1,2,4-triazol-3-yl]pyridin-2(1H)-one], for which, in data set [1], the Kp turned out to be 0.035. In addition, in data set [2], the pIC50 is 7.28.
For `CCN(Cc1cc(-c2cccc(Cl)c2)on1)c1nnc(-c2ccn(C)c(=O)c2)n1C` [Example 4.10, 4-{5-[{[5-(3-Chlorophenyl)-isoxazol-3-yl]methyl}(ethyl)amino]-4-methyl-4H-1,2,4-triazol-3-yl}-1-methylpyridin-2(1H)-one] the same measures were less than 0.01 and 7.19.
For `CCN(Cc1cc(-c2cccc(Cl)c2)on1)c1nnc(-c2cc[nH]c(=O)c2)n1C` [Example 4.2, 4-{5-[{[5-(3-Chlorophenyl)-isoxazol-3-yl]methyl}(ethyl)amino]-4-methyl-4H-1,2,4-triazol-3-yl}pyridin-2(1H)-one] the same measures were 0.02 and 7.51.
For `CN(Cc1cc(-c2cccc(Cl)c2)on1)c1nnc(-c2ccnnc2)n1C` [Example 8.1, N-{[5-(3-Chlorophenyl)isoxazol-3-yl]methyl}-N,4-dimethyl-5-pyridazin-4-yl-4H-1,2,4-triazol-3-amine] the same measures were 0.03 and 8.00.
Take `CCN(Cc1noc(-c2cccc(C)c2)n1)c1nnc(-c2cn[nH]c(=O)c2)n1C` [Example 8.5, 5-[5-(Ethyl{[5-(3-methylphenyl)-1,2,4-oxadiazol-3-yl]methyl}amino)-4-methyl-4H-1,2,4-triazol-3-yl]pyridazin-3(2H)-one]: in data set [1], the Kp is less than 0.01. The pIC50 in data set [2] is 7.28.
In the same order, the values of `CCN(Cc1cc(-c2cccc(C)c2)on1)c1nnc(-c2cn[nH]c(=O)c2)n1C` [Example 4.6, 5-[5-(Ethyl{[5-(3-methylphenyl)isoxazol-3-yl]-methyl}amino)-4-methyl-4H-1,2,4-triazol-3-yl]pyridazin-3(2H)-one] are 0.01 and 7.35.
Turning to `CN(Cc1cc(-c2cccc(Cl)c2)on1)c1nnc(-c2cncnc2)n1C` [Example 8.2, N-{[5-(3-Chlorophenyl)isoxazol-3-yl]methyl}-N,4-dimethyl-5-pyrimidin-5-yl-4H-1,2,4-triazol-3-amine], in data set [1], the Kp stood at 0.16. Moreover, the pIC50 in data set [2] is 7.70.
